The text below walks through data of paper PMC6974622, “DeepMalaria: Artificial Intelligence Driven Discovery of Potent Antiplasmodials” (Frontiers in Pharmacology, 2020).

“Also recorded” adds a separate entry of the source.

In experiment [1] the test system is multidrug resistant P. falciparum strain Dd2. Briefly: SYBR Green I Plasmodium growth inhibition assay (fixed concentration screen and EC50). The class given is cell-based, Plasmodium falciparum. The following applies: Plasmodium falciparum; Pf Dd2, 1 µM, 72 h; read-out: Inhibition One-point (%). How it is done: P. falciparum cultures were maintained under standard culture conditions in RPMI 1640 medium supplemented with 25 mM HEPES, pH 7.4, 26 mM NaHCO3, 2% dextrose, 15 mg/L hypoxanthine, 25 mg/L gentamycin, and 0.5% Albumax II maintained at 37°C in 5% CO2 and 95% air. Initially, a fixed concentration phenotypic screening was performed against multidrug resistant P. falciparum strain Dd2 (resistant to chloroquine, pyrimethamine, and mefloquine) using a SYBR Green I assay ([Johnson et al., 2007]; [Vossen et al., 2010]). An EVO-150 robotic liquid handler (Tecan, Morrisville, NC) was used to aliquot compounds at a final concentration of 1 µM followed by addition of culture to 96-well plates (Greiner, Monroe, NC) at 1% parasitemia, 2% hematocrit. Plates were incubated for 72 h at 37°C in a humidified atmosphere 5% CO2/95% air prior to freezing. Plates were subsequently thawed and 1X SYBR Green I was added with lysis buffer (20 mM Tris-HCl, 0.08% saponin, 5 mM EDTA, 0.8% Triton X-100). After incubation at room temperature in dark for 1 h, the fluorescent emission was measured at excition and emission wavelengths of 485 nm and 530 nm, respectively, using a BioTek Synergy neo2 (Winooski, VT) plate reader. […] Curve fitting was performed using GraphPad Prism and EC50 value was determined for each compound.

For experiment [2], the system named is human hepatoma cell line HepG2. Briefly: MTS based cytotoxicity assay (counter-screen for selectivity). The class given is cell-based. The following applies: 48 h. As for the experimental part: Selectivity was determined by counter-screening against human hepatoma cell line HepG2 in a MTS (3-(4,5-Dimethylthiazol-2-yl)-5-(3-carboxymethoxyphenyl)-2-(4-sulfophenyl)-2H-tetrazolium) based cytotoxicity assay (CellTiter 96® Aqueous One, Promega, Madison, WI) ([Riss et al., 2004]). Briefly, microtiter plates were seeded with 1,500 cells per well in a 384 well plate and incubated for 24 h at 37°C in 5% CO2/95% air atmosphere. The next day, compounds were added at seven different serially diluted concentrations starting at 25 µM d incubated for additional 48 h at stated conditions. MTS solution was next added to each well, incubated for additional 3 h at 37°C, and absorbance was read at 490 nm using BioTek Synergy neo 2 plate reader. Untreated cells served as control. Curve fitting was performed using GraphPad Prism and EC50 value was determined.

In a further experiment the test system is Pf Dd2. Briefly: Rate of killing determination. The following applies: synchronized Dd2, exposure 6 or 12 h, parasitemia tracked for 6 days. The class given is cell-based, Plasmodium falciparum. How it is done: Pf Dd2 culture was synchronized as described ([Roberts et al., 2016]), plated into 24 well plates at 2% parasitemia and 2% hematocrit at 6 hpi. […] Each well was exposed to the inhibitor for either 6 or 12 h using dihydroartemisinin (DHA) (25 µM) and untreated culture as controls. After washing the compounds off, the media was changed twice a day. The parasitemia was tracked for 6 days after addition of compounds. Thin smears were stained with Giemsa, and parasitemia was counted using microscope.

The test system of a further experiment is P. falciparum Dd2. Briefly: Stage-specific activity assay (Giemsa smears, YOYO-1 flow cytometry). The class given is cell-based, Plasmodium falciparum. The following applies: synchronized Dd2, compound at 3X EC50 added at 6, 18, 30, 42 hpi. As for the experimental part:
P. falciparum Dd2 cell line was synchronized using a combination of 5% sorbitol and magnetic column separation as described ([Roberts et al., 2016]). Cultures at 2% parasitemia and 2% hematocrit were added to microtiter plate wells and measurements began 6 h post-invasion (6 hpi). Hit compounds were added at 3X EC50 concentration at specified time points. Controls are DHA (3X EC50) and untreated cultures. Giemsa-stained thin smears were made for each time point and an aliquot of the culture was fixed for flow cytometric analysis using 0.04% glutaraldehyde in PBS. After fixing and aspirating, cells were permeabilized with 0.25% Triton-100 followed by treatment with RNase (0.05 mg/ml) for 3 h. Next, YOYO 1 (10.24 µM) fluorescent dye was added and samples were analyzed ([Bouillon et al., 2013]) using Beckman Coulter (Indianapolis, IN) CytoFlex S flowcytometer.
(A flow cytometer gives signals particle by particle.)

What is called inhibition is the drop in the measured response relative to a control, in per cent. By EC50 is commonly meant the concentration that produces a half-maximal response. Regarding `CC(C)C[C@@H](N)C(=O)N1CCC2(CCCCCc3ccccc3OCCN(C)C2=O)CC1` [DC-9236, CC(C)C[C@@H](N)C(=O)N1CCC2(CC1)CCCCCC1=C(OCCN(C)C2=O)C=CC=C1], the inhibition at 1 µM in experiment [1] was 98%. For the same compound, in experiment [2], the 50% effective concentration (EC50) came to 6.5 µM. Besides, the Rate of killing result in the experiment on Pf Dd2 was “higher elimination in the second life cycle; also recorded: inhibition in the second developmental cycle of Pf causing delayed death”. Moreover, the Stage specific activity entry with P. falciparum Dd2 is “active in late Troph and early Schizont; also recorded: inhibits primarily the mature schizonts”.
Turning to `CCC1C2=NC(Cc3ccccc3)=C(O2)N(Cc2ccccc2)Cc2cn(nn2)CCCCN1Cc1ccccc1OCCN(C)C` (centres unmarked) [DC-9237, CCC1N(CC2=CC=CC=C2OCCN(C)C)CCCCN2C=C(CN(CC3=CC=CC=C3)C3=C(CC4=CC=CC=C4)N=C1O3)N=N2], the inhibition at 1 µM in experiment [1] is 95%. Moreover, the EC50 in experiment [2] came to 17 µM. For the same compound, in the experiment on Pf Dd2, the Rate of killing entry is “fast-acting; also recorded: inhibited growth at all asexual stages after 6 h of exposure and parasite population did not resume growth even after 6 days”. In addition, the Stage specific activity result in the experiment with P. falciparum Dd2 is “inhibits all asexual stages of Plasmodium falciparum; also recorded: inhibits all asexual blood stages of Dd2 including the early ring stage”.
